Experimental data as given in patent US9822105B2, “Diaminotriazine compounds as herbicides” (BASF SE, priority 2014, dated 2017).

Key:
CHEAL = assay: Greenhouse test, post-emergence treatment; format: in vivo, Chenopodium album; conditions: 0.0312 kg/ha
Description: (§1) The seeds of the test plants were sown separately for each species. For the post-emergence treatment, the test plants were first grown to a height of […], depending on the plant habit, and only then treated with the active ingredients which had been suspended or emulsified in water. For this purpose, the test plants were either sown directly and grown in the same containers, or they were first grown separately as seedlings and transplanted into the test containers a few days prior to treatment. Depending on the species, the plants were kept at 10-25° C. or 20-35° C., respectively. The test period extended over 2 to 4 weeks. During this time, the plants were tended, and their response to the individual treatments was evaluated. Evaluation was carried out using a scale from 0 to 100. 100 means no emergence of the plants, or complete destruction of at least the aerial moieties, and 0 means no damage, or normal course of growth. […] The plants used in the greenhouse experiments were of the following species: [table]

BRSNW = assay: Greenhouse test, post-emergence treatment; format: in vivo, Winter rape; conditions: 0.0312 kg/ha
Description: as §1

AMARE [1] = assay: Greenhouse test, post-emergence treatment; format: in vivo, Amaranthus retroflexus
Description: as §1

SETFA = assay: Greenhouse test, pre-emergence treatment; format: in vivo, Setaria faberi; conditions: 0.5 kg/ha, SETFA
Description: (§2) The seeds of the test plants were sown separately for each species. For the pre-emergence treatment, the active ingredients, which had been suspended or emulsified in water, were applied directly after sowing by means of finely distributing nozzles. The containers were irrigated gently to promote germination and growth and subsequently covered with transparent plastic hoods until the plants had rooted. This cover caused uniform germination of the test plants, unless this had been impaired by the active ingredients. Depending on the species, the plants were kept at 10-25° C. or 20-35° C., respectively. The test period extended over 2 to 4 weeks. During this time, the plants were tended, and their response to the individual treatments was evaluated. Evaluation was carried out using a scale from 0 to 100. 100 means no emergence of the plants, or complete destruction of at least the aerial moieties, and 0 means no damage, or normal course of growth. […] The plants used in the greenhouse experiments were of the following species: [table]

ALOMY = assay: Greenhouse test, pre-emergence treatment; format: in vivo, Alopecurus myosuroides
Description: as §2

AMARE [2] = assay: Greenhouse test, pre-emergence treatment; format: in vivo, Amaranthus retroflexus
Description: as §2

APESV = assay: Greenhouse test, pre-emergence treatment; format: in vivo, Apera spica-venti; conditions: 250 g/ha
Description: as §2

ABUTH = assay: Greenhouse test, post-emergence treatment; format: in vivo, Abutilon theophrasti
Description: as §1

SETVI = assay: Greenhouse test, post-emergence treatment; format: in vivo, Setaria viridis; conditions: 125 g/ha, STEVI
Description: as §1

[3] = 500 g/ha, stated in words without grade

## CC(C)(F)c1nc(N)nc(Nc2c(F)ccc3c2OCO3)n1 [Example 1, N2-(5-fluoro-1,3-benzodioxo1-4-yl)-6-(1-fluoro-1-methyl-ethyl)-1,3,5-triazine-2,4-diamine]
CHEAL
  herbicidal activity: good (a good herbicidal activity is given at values of at least 70)
BRSNW
  herbicidal activity: good (a good herbicidal activity is given at values of at least 70)
AMARE [1]; 0.0312 kg/ha
  herbicidal activity: very good (a very good herbicidal activity is given at values of at least 85)

## CC(C)(F)c1nc(N)nc(Nc2c(Br)ccc3c2OCO3)n1 [Example 3]
SETFA
  herbicidal activity: very good (a very good herbicidal activity is given at values of at least 85)
ALOMY; 0.5 kg/ha
  herbicidal activity: very good (a very good herbicidal activity is given at values of at least 85)
AMARE [2]; 0.5 kg/ha
  herbicidal activity: very good (a very good herbicidal activity is given at values of at least 85)

## CC1(c2nc(N)nc(Nc3c(F)ccc4c3OCO4)n2)CCCCC1 [Example 6]
ALOMY; 250 g/ha
  herbicidal activity: good (a good herbicidal activity is given at values of at least 70)
AMARE [2]; Amaranthus retroflexus, read-out: herbicidal activity, 250 g/ha
  pest or weed control at 250 g/ha: ≥ 70%
APESV
  herbicidal activity: very good (a very good herbicidal activity is given at values of at least 85)

## Nc1nc(Nc2c(F)ccc3c2OCO3)nc(N2CCC2)n1 [Example 18]
AMARE [1]; [3]
  herbicidal activity: herbicidal activity
ABUTH; [3]
  herbicidal activity: herbicidal activity

## Nc1nc(Nc2c(F)ccc3c2OCO3)nc(N2CCCCC2)n1 [Example 21]
AMARE [1]; 500 g/ha
  herbicidal activity: very good (a very good herbicidal activity is given at values of at least 85)
ABUTH; 500 g/ha
  herbicidal activity: good (a good herbicidal activity is given at values of at least 70)

## CC(C)(F)c1nc(N)nc(Nc2c(F)c(F)cc3c2OCO3)n1 [Example 30]
SETVI
  herbicidal activity: very good (a very good herbicidal activity is given at values of at least 85)
AMARE [1]; 125 g/ha
  herbicidal activity: very good (a very good herbicidal activity is given at values of at least 85)
ABUTH; 125 g/ha
  herbicidal activity: very good (a very good herbicidal activity is given at values of at least 85)
